Literature values in PMC7109127 (British Journal of Cancer, 2020).

Legend:
[1] = cited from earlier work
[2] = system: metastatic renal cell carcinoma; details: TIVO-1; cited from earlier work
[3] = TIVO-1; cited from earlier work
advanced HCC = system: advanced HCC; design: method as in PMID 18650514; details: cited from earlier work
HCC [4] = details: first-line HCC; cited from earlier work
[5] = first-line HCC; cited from earlier work
HCC [6] = system: HCC; design: method as in PMID 30665869, PMID 26095784; details: selective VEGFR-2 inhibition; cited from earlier work

Row | Compound | half-life [1] | overall response rate (ORR) [2] | progression-free survival (PFS) [2] | diarrhoea incidence [3] | hypertension incidence [3] | palmar–plantar erythrodysesthesia incidence [3] | objective responses (advanced HCC) | ORR (RECIST 1.1) (HCC [4]) | patients progression free at 6 months (HCC [4]) | Fatigue, all grades [5] | Fatigue, grade 3–4 [5] | objective responses in HCC (HCC [6])
1 | CNC(=O)c1cc(Oc2ccc(NC(=O)Nc3ccc(Cl)c(C(F)(F)F)c3)cc2)ccn1 [sorafenib] | 25 to 48 h | 23.3% | 9.1 months | 33% | 34% | 54% | ≤ 2% | 6.5% | 35% | 25% | 4% | –
2 | ramucirumab | – | – | – | – | – | – | – | – | – | – | – | does not usually lead to objective responses
3 | COc1cc2nccc(Oc3ccc(NC(=O)NC4CC4)c(Cl)c3)c2cc1C(N)=O [lenvatinib] | – | – | – | – | – | – | – | 18.8% | 55% | – | – | –
